Data taken from PubChem BioAssay (NCI).
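Cells were grown in 96-well plates and exposed to each compound for 48 hours at five concentrations; endpoints were interpolated linearly between bracketing concentrations, or set to the highest concentration if not reached. Definition used: TGI = concentration required for complete inhibition of growth.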

tested on: HCT-116 colon; experiment: inhibition of tumour cell growth, NCI panel, 48 h

SMILES	TGI [µM]
Clc1ccc(OCc2nnc3n2N=C(c2ccccc2)CS3)cc1	23.3
CC(=O)N(C(C)=O)c1c(N)n(C)c(=O)[nH]c1=O	> 100

tested on: HOP-62 NSCLC; experiment: inhibition of tumour cell growth, NCI panel, 48 h

SMILES	TGI [µM]
NC(N)=N/N=C(/CCN1CCCC1)CC(c1ccccc1)c1c(O)c2ccccc2oc1=O (configuration not stated)	> 100
Clc1ccc(OCc2nnc3n2N=C(c2ccccc2)CS3)cc1	34.8

tested on: ACHN renal; experiment: inhibition of tumour cell growth, NCI panel, 48 h

SMILES	TGI [µM]
COC(=O)C1CC2c3c(c4ccccc4n3C)CC(C1=O)N2C (configuration not stated)	> 100
CC(C)c1ccccc1NC(=O)CCC(=O)NN	> 100
NC(N)=N/N=C(/CCN1CCCC1)CC(c1ccccc1)c1c(O)c2ccccc2oc1=O (configuration not stated)	> 100
Clc1ccc(OCc2nnc3n2N=C(c2ccccc2)CS3)cc1	37.5
CC(=O)N(C(C)=O)c1c(N)n(C)c(=O)[nH]c1=O	> 100

tested on: SK-MEL-2 melanoma; experiment: inhibition of tumour cell growth, NCI panel, 48 h

SMILES	TGI [µM]
COC(=O)C1CC2c3c(c4ccccc4n3C)CC(C1=O)N2C (configuration not stated)	> 100
CC(C)c1ccccc1NC(=O)CCC(=O)NN	> 100
NC(N)=N/N=C(/CCN1CCCC1)CC(c1ccccc1)c1c(O)c2ccccc2oc1=O (configuration not stated)	> 100
Clc1ccc(OCc2nnc3n2N=C(c2ccccc2)CS3)cc1	34.4
CC(=O)N(C(C)=O)c1c(N)n(C)c(=O)[nH]c1=O	> 100

tested on: SK-MEL-28 melanoma; experiment: inhibition of tumour cell growth, NCI panel, 48 h

SMILES	TGI [µM]
COC(=O)C1CC2c3c(c4ccccc4n3C)CC(C1=O)N2C (configuration not stated)	> 100
CC(C)c1ccccc1NC(=O)CCC(=O)NN	> 100
NC(N)=N/N=C(/CCN1CCCC1)CC(c1ccccc1)c1c(O)c2ccccc2oc1=O (configuration not stated)	> 100
Clc1ccc(OCc2nnc3n2N=C(c2ccccc2)CS3)cc1	38.2
CC(=O)N(C(C)=O)c1c(N)n(C)c(=O)[nH]c1=O	> 100

tested on: SR leukemia; experiment: inhibition of tumour cell growth, NCI panel, 48 h

SMILES	TGI [µM]
COC(=O)C1CC2c3c(c4ccccc4n3C)CC(C1=O)N2C (configuration not stated)	87.6
CC(C)c1ccccc1NC(=O)CCC(=O)NN	> 100
Clc1ccc(OCc2nnc3n2N=C(c2ccccc2)CS3)cc1	29.5

tested on: SNB-78 CNS; experiment: inhibition of tumour cell growth, NCI panel, 48 h

SMILES	TGI [µM]
COC(=O)C1CC2c3c(c4ccccc4n3C)CC(C1=O)N2C (configuration not stated)	> 100
CC(C)c1ccccc1NC(=O)CCC(=O)NN	> 100

tested on: M14 melanoma; experiment: inhibition of tumour cell growth, NCI panel, 48 h

SMILES	TGI [µM]
COC(=O)C1CC2c3c(c4ccccc4n3C)CC(C1=O)N2C (configuration not stated)	> 100
CC(C)c1ccccc1NC(=O)CCC(=O)NN	> 100
NC(N)=N/N=C(/CCN1CCCC1)CC(c1ccccc1)c1c(O)c2ccccc2oc1=O (configuration not stated)	> 100
Clc1ccc(OCc2nnc3n2N=C(c2ccccc2)CS3)cc1	41
CC(=O)N(C(C)=O)c1c(N)n(C)c(=O)[nH]c1=O	> 100

tested on: SF-268 CNS; experiment: inhibition of tumour cell growth, NCI panel, 48 h

SMILES	TGI [µM]
COC(=O)C1CC2c3c(c4ccccc4n3C)CC(C1=O)N2C (configuration not stated)	> 100
CC(C)c1ccccc1NC(=O)CCC(=O)NN	> 100
NC(N)=N/N=C(/CCN1CCCC1)CC(c1ccccc1)c1c(O)c2ccccc2oc1=O (configuration not stated)	> 100
Clc1ccc(OCc2nnc3n2N=C(c2ccccc2)CS3)cc1	39.9
CC(=O)N(C(C)=O)c1c(N)n(C)c(=O)[nH]c1=O	> 100

tested on: OVCAR-3 ovarian; experiment: inhibition of tumour cell growth, NCI panel, 48 h

SMILES	TGI [µM]
COC(=O)C1CC2c3c(c4ccccc4n3C)CC(C1=O)N2C (configuration not stated)	> 100
CC(C)c1ccccc1NC(=O)CCC(=O)NN	> 100
NC(N)=N/N=C(/CCN1CCCC1)CC(c1ccccc1)c1c(O)c2ccccc2oc1=O (configuration not stated)	> 100
Clc1ccc(OCc2nnc3n2N=C(c2ccccc2)CS3)cc1	32.4
CC(=O)N(C(C)=O)c1c(N)n(C)c(=O)[nH]c1=O	> 100

tested on: UO-31 renal; experiment: inhibition of tumour cell growth, NCI panel, 48 h

SMILES	TGI [µM]
COC(=O)C1CC2c3c(c4ccccc4n3C)CC(C1=O)N2C (configuration not stated)	69
CC(C)c1ccccc1NC(=O)CCC(=O)NN	> 100
Clc1ccc(OCc2nnc3n2N=C(c2ccccc2)CS3)cc1	20.8
CC(=O)N(C(C)=O)c1c(N)n(C)c(=O)[nH]c1=O	> 100

tested on: UACC-257 melanoma; experiment: inhibition of tumour cell growth, NCI panel, 48 h

SMILES	TGI [µM]
COC(=O)C1CC2c3c(c4ccccc4n3C)CC(C1=O)N2C (configuration not stated)	> 100
CC(C)c1ccccc1NC(=O)CCC(=O)NN	> 100
NC(N)=N/N=C(/CCN1CCCC1)CC(c1ccccc1)c1c(O)c2ccccc2oc1=O (configuration not stated)	> 100
Clc1ccc(OCc2nnc3n2N=C(c2ccccc2)CS3)cc1	29.3
CC(=O)N(C(C)=O)c1c(N)n(C)c(=O)[nH]c1=O	> 100

tested on: NCI-H226 lung; experiment: inhibition of tumour cell growth, NCI panel, 48 h

SMILES	TGI [µM]
COC(=O)C1CC2c3c(c4ccccc4n3C)CC(C1=O)N2C (configuration not stated)	> 100
CC(C)c1ccccc1NC(=O)CCC(=O)NN	> 100
NC(N)=N/N=C(/CCN1CCCC1)CC(c1ccccc1)c1c(O)c2ccccc2oc1=O (configuration not stated)	> 100
Clc1ccc(OCc2nnc3n2N=C(c2ccccc2)CS3)cc1	39.9
CC(=O)N(C(C)=O)c1c(N)n(C)c(=O)[nH]c1=O	> 100

tested on: HCC-2998 colon; experiment: inhibition of tumour cell growth, NCI panel, 48 h

SMILES	TGI [µM]
COC(=O)C1CC2c3c(c4ccccc4n3C)CC(C1=O)N2C (configuration not stated)	> 100
NC(N)=N/N=C(/CCN1CCCC1)CC(c1ccccc1)c1c(O)c2ccccc2oc1=O (configuration not stated)	> 100
Clc1ccc(OCc2nnc3n2N=C(c2ccccc2)CS3)cc1	32.1
CC(=O)N(C(C)=O)c1c(N)n(C)c(=O)[nH]c1=O	> 100

tested on: KM20L2 colon; experiment: inhibition of tumour cell growth, NCI panel, 48 h

SMILES	TGI [µM]
COC(=O)C1CC2c3c(c4ccccc4n3C)CC(C1=O)N2C (configuration not stated)	> 100
CC(C)c1ccccc1NC(=O)CCC(=O)NN	> 100
NC(N)=N/N=C(/CCN1CCCC1)CC(c1ccccc1)c1c(O)c2ccccc2oc1=O (configuration not stated)	> 100
Clc1ccc(OCc2nnc3n2N=C(c2ccccc2)CS3)cc1	30.6
CC(=O)N(C(C)=O)c1c(N)n(C)c(=O)[nH]c1=O	> 100
